# Counter-ions that a name gives are not always drawn.
# Experiments:
# [1] = system: P. yoelii sporozoites (265 BY strain); experiment: Challenge of mice with P. yoelii sporozoites, parasitemia in blood smears; assay type: in vivo; conditions: Swiss mice, 5,000 sporozoites IV; for reduction of parasitemia with respect to controls: after 12 days
# Method: All animal were kept and used in accordance with institutional guidelines and European regulations. Female 6-week-old Swiss mice (René Janvier, Le Genest-Saint-Isle, France) weighing 24-31 g were randomly allotted to all groups.
# The drugs tested were administered intra-peritoneally (IP). Monensin (MN) (Monensin A sodium salt, ref. M5273, Sigma) was diluted in PBS-methanol 2% and Nigericin (NG) (Nigericin sodium salt, ref. N7143, Sigma), another polyether ionophore antibiotic, in PBS-DMSO 2%.
# The drugs were administrated on days −1, 0, +1, +2 (+40 h), and the mice challenged on day 0 by intravenous injection of 5,000 P. yoelii sporozoites (265 BY strain).
# Group 1 received 25 mg/kg/day of MN and group 2 received PBS-methanol 2%. These groups received the drug and the solvent from day −1. Group 3 received 25 mg/kg/day of MN and group 4 received PBS-methanol 2% from day 0 post-infection. Group 5 received 35 mg/kg/day of NG and group 6 received PBS-DMSO 2% from day −1. Group 7 and 8 received 35 mg/kg/day of NG and PBS-DMSO 2% respectively from day 0 post-infection.
# All groups were challenged with 5,000 sporozoites at day 0. Parasites were enumerated by blinded microscopic examination of Giemsa-stained tail-blood smears collected at day 3 until day 9, day 12 and day 15 post-infection. A mouse was considered negative when no parasites could be observed in 20,000 red blood cells (50 fields under a 50× light microscope objective) on any day during the period of observation.
# [2] = system: pre-erythrocytic development stage of P. yoelii; experiment: Real-time PCR quantification of the liver stage parasite burden; assay type: in vivo; conditions: mice, 25 mg/kg IP on days 0 and +1; 2.5×10^5 sporozoites IV; liver 40 h post-infection
# Method: MN was administered IP on days 0 and day +1. Group 1 received 25 mg/kg of MN, whereas the control groups received the MN solvent (PBS-Methanol 2%). Mice were then challenged on day 0 by intra-venous injection with 2.5×10^5 P. yoelii sporozoites and sacrificed 40 h post-infection.
# A piece of liver (0.2 g) was harvested and total RNA extracted using the Micro to Midi Kit (Invitrogen, France) according to the manufacturer's instructions and treated with Dnase Turbo DNA free (Ambion, France). Five micrograms of total RNA was reverse transcribed by Superscript II (Invitrogen) and an equivalent of 100 ng RNA was used for each TaqMan® PCR reactions on a MX4000 multiplex quantitative PCR system (Stratagene, France).
# Mouse β-actin primers (forward […] (SEQ ID NO: 4), reverse […] (SEQ ID NO: 5); Invitrogen) and probe (HEX-[…]-BHQ2 (SEQ ID NO: 6); MWG biotech) were used for normalisation.
# P. yoelii 18S rRNA and mouse β-actin PCR fragments were cloned into plasmids and used in a 10-fold dilution series to determine a standard curve.
# Absolute transcript copy number for each gene was calculated based on the external standard curve. Quantitative parasite burden was expressed as the ratio between absolute copy numbers of P. yoelii 18S ribosomal cDNA and mouse β-actin cDNA to account for experimental differences. TaqMan® test sample and plasmid standards were done in quadruplet.
# [3] = system: P. yoelii sporozoites; experiment: Sporozoite migration assay (HepG2CD81 cells, FITC-dextran, flow cytometry); assay type: cell-based; conditions: all concentrations (5 μM, 5 nM and 5 picomolar); 2 h at 37° C.; vs untreated sporozoites
# Method: P. yoelii sporozoites treated with three concentrations (5 μM, 5 nM and 5 picomolar) of MN were incubated with HepG2CD81 cells for 2 h at 37° C. in the continued presence of with 0.5 mg/ml FITC-dextran. After 2 h at 37° C., cells were washed and fixed with PBS-formaldehyde 1%, and FITC-positive cells were counted by flow cytometry.
# [4] = system: P. yoelii sporozoites; experiment: Invasion assay, first experiment: pre-treatment of sporozoites, then hepatocytes, EEF count; assay type: cell-based; conditions: washed, 48 h with hepatocytes
# Method: Two experiments were performed.
# The first experiment consisted in pre-treatment of P. yoelii sporozoites with MN at 5 pM, 0.5 μM, or 5 μM, for 1 h at room temperature then washed and added to hepatocytes. Sporozoites controls were pre-treated with medium alone and incubated 1 h at room temperature in the same conditions. Parasites were then incubated with hepatocytes for 48 h at 37° C. in 5% CO2, stained, and examined microscopically to determine the quantity of exo-erythrocytic forms (EEF) (Basco et al., 1999; Mahmoudi et al., 2003).
# [5] = system: P. yoelii sporozoites; experiment: Invasion assay, second experiment: infecting hepatocytes with sporozoites in the presence of MN, EEF count; assay type: cell-based; conditions: all concentrations (50 pM, 1 μM, 10 μM) present for 3 h during infection, then 45 h culture
# Method: The second experiment consisted in infecting hepatocytes with sporozoites in the presence of MN at 50 pM, 1 μM, or 10 μM. After 3 h of incubation, MN was eliminated and the cultures were maintained 45 h at 37° C. in 5% CO2.
# The cultures were stained and the quantity of exo-erythrocytic forms (EEF) was determined microscopically.
# [6] = system: P. yoelii sporozoites; experiment: Maturation assay: hepatocyte cultures infected with sporozoites, then treated; assay type: cell-based; conditions: all concentrations (50 pM, 1 μM, 10 μM) for 45 h after 3 h infection and washing
# Method: The experiment consisted in infecting hepatocytes cultures with P. yoelii sporozoites for 3 h, washing the cultures and then treating them with MN 50 pM, 1 μM, or 10 μM, for 45 h at 37° C.
# [7] = system: P. yoelii blood stage; experiment: Blood stage infection of mice with P. yoelii-infected red blood cells; assay type: in vivo; conditions: 25 mg/kg at day-3, day-2, day-1 before infection
# Method: Two groups of mice were treated at day-3, day-2 and day-1 before infection with MN (25 mg/kg) or solvent (PBS-Methanol-2%). At day 0 the mice were inoculated IP with 4×10^5 P. yoelii-infected red blood cells. From day 3 post-infection, an enumeration of parasites in blood smears was conducted until day 10 post-infection.
# [8] = system: P. yoelii oocysts in Anopheles stephensi; experiment: Transmission to mosquito: oocysts in Anopheles stephensi midguts fed on treated mice; assay type: in vivo; conditions: Anopheles stephensi fed 2 hours on MN treated mice; 30 midguts dissected 8 days later
# Method: The mice of the MN treated group and the control group of Example 3 were anesthetized and placed for 2 hours over a cage with 100 female laboratory-bred Anopheles stephensi. Oocysts were enumerated in 30 mosquito midguts dissected 8 days later.
Structure (SMILES),"protection from erythrocytic infection (mice with no parasite in blood smears) ([1]; 25 mg/kg/day IP daily for 3 days (treated, from day 0))","protection from erythrocytic infection (mice with no parasite in blood smears) ([1]; 25 mg/kg/day IP daily for 4 days (pre-treated, from day -1))","inhibition on parasite development (liver parasite burden, 18S rRNA/β-actin) [2]",inhibition of sporozoites migration [3],inhibition of parasite development (EEF) ([4]; sporozoites pre-treated 1 h with 5 pM),inhibition of parasite development (EEF) ([4]; sporozoites pre-treated 1 h with 0.5 μM),inhibition of parasite development (EEF) ([4]; sporozoites pre-treated 1 h with 5 μM),inhibition of parasite development (EEF) [5],inhibition of parasite development [6],"parasitemia course ([7]; 4×10^5 infected red blood cells IP, blood smears day 3-10)",male gametocytes in blood ([7]; vs untreated group),oocysts in mosquito midguts [8],reduction of parasitemia with respect to controls ([1]; 35 mg/kg/day IP daily for 3 days (treated)),reduction of parasitemia with respect to controls ([1]; 35 mg/kg/day IP daily for 4 days (pretreated))
"CC[C@@]1([C@H]2O[C@H]([C@H]3O[C@@](O)(CO)[C@H](C)C[C@@H]3C)C[C@H]2C)CC[C@H]([C@@]2(C)CC[C@]3(C[C@H](O)[C@@H](C)[C@@H]([C@H](C)[C@H](OC)[C@@H](C)C(=O)[O-])O3)O2)O1.[Na+] [MN, Monensin A sodium salt]",100 % of the mice,100 % of the mice,96.8%,93%,96.26%,complete inhibition,complete inhibition,totally inhibited parasite development,completely inhibited parasite development,"Increasing parasitemia, although delayed by comparison with the control group",no male gametocytes were observed,No oocyst could be observed,,
"CO[C@@H]1C[C@@H](C[C@H]2CC[C@H](C)[C@H]([C@@H](C)C(=O)O)O2)O[C@]2(O[C@](C)([C@H]3CC[C@@](C)([C@@H]4O[C@@H]([C@H]5O[C@@](O)(CO)[C@H](C)C[C@@H]5C)C[C@@H]4C)O3)C[C@H]2C)[C@@H]1C [NG, Nigericin sodium salt, reference compound]",,,,,,,,,,,,,51%,71%
